These results are taken from US4680411A, “Pyrano[2,3-g]indoles useful as anti-ulcerous, anti-inflammatory and antalgic agent” (Societe de Recherches Industrielles, priority 1980, dated 1987).

One may read the LD50 as the dose at which mortality reaches 50%.

A short description of data set [1]: Toxicity, LD50 (DL50) I.P. Particulars: in vivo, ip. An excerpt: The pharmacological tests carried out particularly with regard to toxicity, the ulcers provoked by aspirin and serotonin, and the anti-inflammatory and antalgic effects, are summarised hereinafter. The methods used are recalled hereinafter.
(§1) Table III hereinbelow deals with the LD50 and with the inhibition of the ulcers caused by aspirin, the inhibition of the oedema provoked by carragenine and cramping (the products to be tested being, in the latter two cases, administered by the IP route at a dose equal to one tenth of the LD50 IP).

A short description of data set [2]: Inhibition of ulcer provoked by aspirin. Format: in vivo, male Wistar rats. Particulars: Rattus norvegicus; rats; 100 mg/kg IP at t=0 and again at t=18 h; aspirin 192 mg/kg per os; sacrificed at t=22 h; read-out: Aspirine induced ulcer % inhibition. How it is done: The experiment is carried out on male Wistar rats weighing 180 to 200 g.
At t=0 the rats are made to fast and a first administration of the product to be tested, at a dose of 100 mg/kg, is made IP. At t=18 hours, 2 ml of an ulcer-forming suspension with 192 mg of aspirin/kg are administered per os then a second IP administration of the product to be tested, at a dose of 100 mg/kg, is made.
At t=22 hours, the animals are sacrificed and the ulcers are marked as follows: small punctiform ulcers: mark 1 more extensive ulcers: mark 3 very extensive or very deep ulcers: mark 9
as §1

Data set [3] is described as follows: Inhibition of oedema provoked by carragenine (anti-inflammatory effect). The following applies: IP, dose equal to one tenth of the LD50 IP. In kind it is in vivo.
Description: (§2) The techniques relative to the anti-inflammatory effects (oedema caused by carragenine) and antalgic effects (cramping) which were used are the conventional techniques described in the prior art.
as §1

Data set [4] in a line: Inhibition of cramping (antalgic effect). The following applies: IP, dose equal to one tenth of the LD50 IP. In kind it is in vivo.
Description: as §2, §1

Data set [5] is described as follows: Clinic: treatment of oedemas in man. In kind it is in vivo.
Data set [6] is described as follows: Inhibition of ulcer provoked by serotonin (Hashizume technique). In kind it is in vivo, male Sprague-Dawley rats. The following applies: serotonin 60 mg/kg sub-cutaneous. How it is done:
ULCER PROVOKED BY SEROTONIN The technique used is the one described by Hashizume, in Arch. Int. Pharmacodyn. 236, 96-108, (1978). The experiment is carried out on 3 batches of male Sprague-Dawley rats. Each batch includes 20 animals. The first batch constitutes the controls, the second is treated with Carbenoxolone, the third is treated with the product to be tested. The animals are made to fast 24 hours before the experiment. At t=0, the product to be tested is administered by the IP route to the third batch, 100 mg/kg of Carbenoxolone are administered per os to the second batch. At t=+10 mins., a sub-cutaneous injection is made of serotonin at 60 mg/kg in the three batches. At t=+250 mins., the animals are sacrificed. The stomachs are removed and spread out and the ulcers are marked as follows: small ulcer +=1 average ulcer ++=3 large ulcer +++=9 The results relative to the inhibition of the ulcers provoked by serotonin are given in Table IV hereinbelow with the doses of the products tested.

The nature of data set [7]: Clinic: treatment of ulcers in man. In kind it is in vivo.
Data set [8] can be described thus: Clinic: treatment of pain in man. In kind it is in vivo.

As for `COc1cc2cc[nH]c2c2c1OCCC2` [Example 9, 5-methoxy-7,8,9-trihydro-pyrano[2,3-g]indole], the LD50 in data set [1] (I.P.) was 650 mg/kg. For the same molecule, in data set [2], the inhibition in vivo at 100 mg/kg is 51%. For the same molecule, the “Carragheenine oedema % inhibition” value in data set [3] was found to be 39%. Further, the Cramping % inhibition in data set [4] is 41%. The “results in the treatment of oedemas” value in data set [5] is recorded as “excellent results”.
With `COc1cc2cc[nH]c2c2c1OCCC2=O` [Example 21, 5-methoxy-9-oxo-7,8-dihydro-pyrano[2,3-g]indole], the LD50 in data set [1] (I.P.) was 600 mg/kg. In addition, in data set [2], the inhibition in vivo at 100 mg/kg came to 60%. For the same molecule, in data set [3], the “Carragheenine oedema % inhibition” value was found to be 49%. The molecule further registered a Cramping % inhibition in data set [4] of 37%. Moreover, in data set [6] (60 mg/kg IP), the “Serotonine ulcer % inhibition” value came to 87%. The “results in the treatment of ulcers” value in data set [7] is recorded as “excellent results”.
The molecule `CN(C)Cc1c[nH]c2c3c(ccc12)OCCC3` [Example 14, 3-(7,8,9-trihydro-pyrano[2,3-g]indolyl)-N,N-dimethylmethylamine] yielded an LD50 in data set [1] of 180 mg/kg. For the same molecule, the inhibition in vivo at 100 mg/kg in data set [2] came to 47.5%. In addition, the “Carragheenine oedema % inhibition” value in data set [3] is given as 22%. Further, the Cramping % inhibition in data set [4] is recorded as 67%. In addition, the “results in the treatment of ulcers” value in data set [7] is listed as “excellent results”.
On to `CC1(C)[C@@H](OC(=O)CCC(=O)O)CC[C@]2(C)[C@H]3C(=O)C=C4[C@@H]5C[C@@](C)(C(=O)O)CC[C@]5(C)CC[C@@]4(C)[C@]3(C)CC[C@@H]12` [Carbenoxolone, reference compound], for which the “Serotonine ulcer % inhibition” value in data set [6] (Carbenoxolone 60 mg/kg IP as printed in table, method says 100 mg/kg per os) turned out to be 64%.
`c1cc2ccc3c(c2[nH]1)CCCO3` [Example 7, 7,8,9-trihydro-pyrano[2,3-g]indole] gave an LD50 in data set [1] (I.P.) of 750 mg/kg. Also, in data set [2], the inhibition in vivo at 100 mg/kg is 46%. In data set [4], this molecule returned a Cramping % inhibition of 14%. Moreover, in data set [6] (75 mg/kg IP), the “Serotonine ulcer % inhibition” value is recorded as 64%. Besides, in data set [7], the “results in the treatment of ulcers” value was “excellent results”.
`COc1cc2cc[nH]c2c2c1OCCC2=NO` [Example 23]: the DLo in data set [1] is reported as above 800 mg/kg. The inhibition in vivo at 100 mg/kg in data set [2] was determined as 40%. In addition, in data set [3], the “Carragheenine oedema % inhibition” value came to 52%. For the same molecule, the Cramping % inhibition in data set [4] turned out to be 51%. Also, in data set [6] (92 mg/kg IP), the “Serotonine ulcer % inhibition” value turned out to be 52%. In addition, in data set [7], the “results in the treatment of ulcers” value is “excellent results”.
With `COc1cc2cc(C(=O)O)[nH]c2c2c1OCCC2` [Example 6, 5-methoxy-7,8,9-trihydro-pyrano[2,3-g]indole-2-carboxylic acid], the LD50 in data set [1] (I.P.) was above 800 mg/kg. Further, the inhibition in vivo at 100 mg/kg in data set [2] was found to be 23%. In addition, in data set [4], the Cramping % inhibition is on record as 66%. Further, the “results in the treatment of pain” value in data set [8] was “excellent results”.
On to `O=C(O)c1cc2cc(Cl)c3c(c2[nH]1)CCCO3` [Example 5, 5-chloro-7,8,9-trihydro-pyrano[2,3-g]indole-2-carboxylic acid], for which the LD50 in data set [1] (I.P.) was determined as 300 mg/kg. Further, the inhibition in vivo at 100 mg/kg in data set [2] is 28%. In addition, the “Carragheenine oedema % inhibition” value in data set [3] is 30%. Besides, the Cramping % inhibition in data set [4] is listed as 35%. Further, the “results in the treatment of oedemas” value in data set [5] is “excellent results”.
In the case of `COc1cc2cc(C(=O)O)[nH]c2c2c1OCCC2=O` [Example 19, 5-methoxy-9-oxo-7,8-dihydro-pyrano[2,3-g]indole-2-carboxylic acid], in data set [1] (I.P.), the 50% lethal dose (LD50) was above 1000 mg/kg. For the same molecule, in data set [2], the inhibition in vivo at 100 mg/kg came out at 49%. Further, the “results in the treatment of ulcers” value in data set [7] was “excellent results”.
As for `Clc1cc2cc[nH]c2c2c1OCCC2` [Example 8, 5-chloro-7,8,9-trihydro-pyrano[2,3-g]indole], the LD50 in data set [1] (I.P.) came to 900 mg/kg. Also, the inhibition in vivo at 100 mg/kg in data set [2] amounted to 42.5%. The “Carragheenine oedema % inhibition” value in data set [3] stood at 33%. The molecule further gave a Cramping % inhibition in data set [4] of 26%. The “Serotonine ulcer % inhibition” value in data set [6] (45 mg/kg IP) is 75%. Further, in data set [7], the “results in the treatment of ulcers” value was “excellent results”.
`COc1cc2cc[nH]c2c2c1OCCC2O` (stereo not shown) [Example 24] gave an LD50 in data set [1] (I.P.) of 1000 mg/kg. The “Carragheenine oedema % inhibition” value in data set [3] was 40%. Also, the Cramping % inhibition in data set [4] is recorded as 60%. Further, the “results in the treatment of oedemas” value in data set [5] is given as “excellent results”.
In turn, `O=C(O)c1cc2ccc3c(c2[nH]1)CCCO3` [Example 4, 7,8,9-trihydro-pyrano[2,3-g]indole-2-carboxylic acid] had a 50% lethal dose (LD50) in data set [1] (I.P.) of 600 mg/kg. In data set [2], the inhibition in vivo at 100 mg/kg was 11%. The “Carragheenine oedema % inhibition” value in data set [3] is 35%. Also, the Cramping % inhibition in data set [4] is reported as 36%. Further, the “results in the treatment of oedemas” value in data set [5] is “excellent results”.
